Data published in patent US7528132B2, “Kinase inhibitors” (Schering Corporation, priority 2005, dated 2009).
pIC50: −log10 of the molar value. Like-named read-outs stand apart in the source and are kept apart here.

Biological target: T1, Akt1 (Homo sapiens, UniProt P31749)
T1 construct: made in house; host or cells: Sf9 insect cells (baculovirus, pBlueBacHis2B)
Experiment: Akt1 kinase assay (33P phosphorylation of biotinylated peptide, Flash plates)
Assay type: biochemical
Conditions: for inhibition at 1.1 µg/mL: assayed at a concentration of 1.1 mcg/mL
Excerpt: The assay described below measures the phosphorylation of a biotinylated peptide by active recombinant Akt1 and other kinase isoforms. The biotinylated peptide contains a consensus sequence derived from Akt substrate Gsk3 (Glycogen synthase kinase 3). The ^33P-labeled peptide substrate was captured by streptavidin-coated Flash plates.
Active recombinant Akt1 was expressed in Sf9 insect cells and purified as described by Kumar et al., Biochim. Biophys. Acta. Jun. 15, 2001, 1526(3), 257-268. Biotinylated peptide of the sequence Bio-ahx-RPRAASF was purchased from Syn Pep (Dublin, Calif., USA).
Cloning and Expression of Human Akt1 Sf9 Cells
Human Akt1 cDNA was amplified from a marathon-ready human lung cDNA library (Clonetech) using nested oligo primers as described below. The first round of amplification was carried out using the following primers; Akt1F1 ([…]) and Akt1R1 (TCCATC […]) and for the second round amplification, the primers of the following sequence were used; Akt1F2 (GGATCCTCGG […]) and AKT1R2 (GGTACCATCGTC […]). The PCR product was subcloned into pCRScript plasmid as a BamHI/KpnI fragment and the sequence of the cDNA was confirmed by DNA sequencing. This plasmid was used as a template for reamplification of Akt1 using appropriate primers for subcloning into pBlueBaHis2B into BamH1/EcoRI sites to generate an in frame fusion to (His)6 tag and an anti-Xpress antibody epitope tag at the N-terminus. This construct was sequenced to verify the junction sequences and used for generating a recombinant baculovirus. Growth of the recombinant virus, amplification and determination of viral titer were carried out according to the instructions from the manufacturer (InVitrogen, CA).
Purification of Akt1 from Sf9 Cells
Viral stocks were used to infect large scale Sf9 cells at a multiplicity of infection (MOI) of 2.5. Cells were maintained at 27° C. for 60 h and okadaic acid was added to the cultures to a concentration of 50 nM. Cells were harvested 4 h hours later by centrifugation at 1200 rpm for 30 min followed by freezing at −80° C. until further use. All purification steps were carried out at 4° C. Whole cell pellets were suspended in buffer A (20 mM sodium phosphate buffer pH 7.8, 500 mM NaCl, 1 mM sodium vanadate, 5 mM sodium fluoride, 40 mM β-glycerophosphate, 10 mM imidazole and protease inhibitor cocktail) and lysed using a microfluidizer. The cell extract was centrifuged at 16,000×g for 10 min to remove the debris and directly loaded onto Ni-NTA Superflow resin using a FPLC pump operated at 1 ml/min. The column was washed once with buffer A, once with wash buffer B (20 mM sodium phosphate pH 6.0, 1 mM sodium vanadate, 5 mM sodium fluoride and protease cocktail) and once with wash buffer B containing 0.05% Tween-20 followed by washing with buffer A until OD260 returned to basal level. Proteins were eluted with buffer A containing 200 mM imidazole. Fractions were analyzed by electrophoresis on 10% denaturing polyacrylamide gels and fractions containing 85% pure protein band at 60 KDa were pooled and dialyzed against buffer C (20 mM Tris-HCl pH 7.5, 0.5 mM EDTA,-2 mM DTT, 145 mM NaCl, 0.1 mM sodium vanadate, 5 mM sodium fluoride, 10 mM, β-glycerophosphate and 20% glycerol). Purified protein was stored as aliquots at −80° C. Protein concentrations were determined using BCA protein assay reagent A (Catalog #23228). To examine the identity of the proteins, 2 μg of purified protein was electrophoresed on SDS-polyacrylamide gels and stained with coomassie blue dye or transferred to nitrocellulose membrane and probed with anti-Akt and anti-phospho-specific Akt antibodies using enhanced chemiluminescence (ECL) reagent according to the protocol described by the manufacturer (Amersham).
The kinase assay was performed in 96 well plates at room temperature. Assay solutions and plates were preincubated at room temperature for 5 min. […]

[1] = read-out: IC50 rating (AKT1 inhibition)
[2] = read-out: IC50 (AKT1 inhibition)

T1 sequence (P31749 whole entry): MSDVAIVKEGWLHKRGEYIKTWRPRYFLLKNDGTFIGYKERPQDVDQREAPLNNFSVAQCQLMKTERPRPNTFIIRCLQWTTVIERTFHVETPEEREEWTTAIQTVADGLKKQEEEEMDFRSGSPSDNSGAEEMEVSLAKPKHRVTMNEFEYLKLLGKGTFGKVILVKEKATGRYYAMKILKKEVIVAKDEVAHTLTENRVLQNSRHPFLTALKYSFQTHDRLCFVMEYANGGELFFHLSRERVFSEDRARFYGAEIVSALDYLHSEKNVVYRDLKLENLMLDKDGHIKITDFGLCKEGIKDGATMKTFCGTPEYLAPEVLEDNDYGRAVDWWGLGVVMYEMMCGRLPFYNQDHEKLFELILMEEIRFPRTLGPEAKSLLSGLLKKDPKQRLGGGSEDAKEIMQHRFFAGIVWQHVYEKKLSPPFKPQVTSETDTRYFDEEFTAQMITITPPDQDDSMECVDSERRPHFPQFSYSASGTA

Structure (SMILES) | pIC50 [1] | inhibition at 1.1 µg/mL [%] | pIC50 [2]
Cc1n[nH]c2ccc(-c3nnc(N)c(N4CCNCC4)n3)cc12 [Compound 1, 6-amino-3-(3-methylindazol-5-yl)-5-(piperazin-1-yl)-[1,2,4]triazine] | 6.00 to 7.00 | – | –
Cc1n[nH]c2ccc(-c3nnc(N)c(O)n3)cc12 [Compound 2] | < 6.00 | – | –
Cc1n[nH]c2ccc(-c3nnc(NCc4ccccc4)c(N4CCNCC4)n3)cc12 [Compound 3, 6-benzylamino-3-(3-methylindazol-5-yl)-5-(piperazin-1-yl)-[1,2,4]triazine] | > 7.00 | > 90 | –
Cc1n[nH]c2ccc(-c3nnc(N(Cc4ccccc4)Cc4ccccc4)c(N4CCNCC4)n3)cc12 [Compound 4, 6-dibenzylamino-3-(3-methylindazol-5-yl)-5-(piperazin-1-yl)-[1,2,4]triazine] | < 6.00 | – | –
Cc1n[nH]c2ccc(-c3nnc(N)c(N4CCN[C@@H](C(C)C)C4)n3)cc12 [Compound 7, 6-amino-5-[(S)-3-isopropylpiperazin-1-yl]-3-(3-methylindazol-5-yl)-[1,2,4]triazine] | > 7.00 | > 90 | –
Cc1n[nH]c2ccc(-c3nnc(N)c(N4CCN[C@@H](CC(C)C)C4)n3)cc12 [Compound 8, 6-amino-5-[(S)-3-isobutylpiperazin-1-yl]-3-(3-methylindazol-5-yl)-[1,2,4]triazine] | > 7.00 | > 90 | –
Cc1n[nH]c2ccc(-c3nnc(N)c(N4CCN[C@H](C)C4)n3)cc12 [Compound 9, 6-amino-3-(3-methylindazol-5-yl)-5-[(R)-3-methylpiperazin-1-yl]-[1,2,4]triazine] | < 6.00 | – | –
Cc1n[nH]c2ccc(-c3nnc(N)c(N4CCCNCC4)n3)cc12 [Compound 10, 6-amino-5-([1,4]diazepan-1-yl)-3-(3-methylindazol-5-yl)-[1,2,4]triazine] | 6.00 to 7.00 | > 90 | –
Cc1n[nH]c2ccc(-c3nnc(N)c(N4CC5CC4CN5)n3)cc12 (stereo not shown) [Compound 11, 6-amino-5-(2,5-diazabicyclo[2.2.1]hept-2-yl)-3-(3-methylindazol-5-yl)-[1,2,4]triazine] | < 6.00 | – | –
Cc1n[nH]c2ccc(-c3nnc(N)c(N4CCN[C@@H](C)C4)n3)cc12 [Compound 14, 6-amino-3-(3-methylindazol-5-yl)-5-[(S)-3-methylpiperazin-1-yl]-[1,2,4]triazine] | 6.00 to 7.00 | – | –
Cc1n[nH]c2ccc(-c3nnc(NCc4ccccc4)c(N4CCN[C@@H](C(C)C)C4)n3)cc12 [Compound 16, 6-benzylamino-5-[(S)-3-isopropylpiperazin-1-yl]-3-(3-methylindazol-5-yl)-[1,2,4]triazine] | > 7.00 | > 90 | –
Cc1n[nH]c2ccc(-c3nnc(NCc4ccccc4)c(N4CCN[C@@H](Cc5ccccc5)C4)n3)cc12 [Compound 18, 6-Benzylamino-5-[(S)-3-benzylpiperazin-1-yl]-3-(3-methylindazol-5-yl)-[1,2,4]triazine] | < 6.00 | – | –
Cc1n[nH]c2ccc(-c3nncc(N4CCN[C@@H](C(C)C)C4)n3)cc12 [Compound 19, 5-[(S)-3-isopropylpiperazin-1-yl]-3-(3-methylindazol-5-yl)-[1,2,4]triazine] | > 7.00 | – | –
Cc1n[nH]c2ccc(-c3nnc(Cl)c(N4CCN[C@@H](C(C)C)C4)n3)cc12 [Compound 20, 6-chloro-5-[(S)-3-isopropylpiperazin-1-yl]-3-(3-methylindazol-5-yl)-[1,2,4]triazine] | > 7.00 | > 90 | –
Cc1n[nH]c2ccc(-c3nncc(N4CCN[C@@H](Cc5c[nH]c6ccccc56)C4)n3)cc12 [Compound 21, 5-[(S)-3-(3-indolylmethyl)piperazin-1-yl]-3-(3-methylindazol-5-yl)-[1,2,4]triazine] | 6.00 to 7.00 | – | –
Cc1n[nH]c2ccc(-c3nncc(N4CCN[C@@H](CC(C)C)C4)n3)cc12 [Compound 23, 5-[(S)-3-isobutylpiperazin-1-yl]-3-(3-methylindazol-5-yl)-[1,2,4]triazine] | > 7.00 | > 90 | 8.27
Cc1n[nH]c2ccc(-c3nnc(Cl)c(N4CCN[C@@H](CC(C)C)C4)n3)cc12 [Compound 24, 6-chloro-5-[(S)-3-isobutylpiperazin-1-yl]-3-(3-methylindazol-5-yl)-[1,2,4]triazine] | > 7.00 | > 90 | –
Cc1n[nH]c2ccc(-c3nncc(N4CCN[C@@H](CO)C4)n3)cc12 [Compound 27] | < 6.00 | – | –
Cc1n[nH]c2ccc(-c3nncc(N4CCN(C)[C@@H](Cc5ccccc5)C4)n3)cc12 [Compound 28, 5-[(S)-3-benzyl-4-methyl-piperazin-1-yl]-3-(3-methylindazol-5-yl)-[1,2,4]triazine] | > 7.00 | – | –
Cc1n[nH]c2ccc(-c3nncc(N4CCN5CCCC5C4)n3)cc12 (stereo not shown) [Compound 29, 5-(1,4-diazabicyclo[4.3.0]non-1-yl)-3-(3-methylindazol-5-yl)-[1,2,4]triazine] | < 6.00 | – | –
Cc1n[nH]c2ccc(-c3nncc(N4CCN5CCCCC5C4)n3)cc12 (stereo not shown) [Compound 30, 5-(1,4-diazabicyclo[4.4.0]dec-1-yl)-3-(3-methylindazol-5-yl)-[1,2,4]triazine] | < 6.00 | – | –

Further lines, results first:

pIC50 [1] | inhibition at 1.1 µg/mL [%] | pIC50 [2] | Structure (SMILES)
> 7.00 | > 90 | – | Cc1n[nH]c2ccc(-c3nnc(N)c(N4CCN[C@@H](Cc5ccccc5)C4)n3)cc12 [Compound 5, 6-amino-5-[(S)-3-benzylpiperazin-1-yl]-3-(3-methylindazol-5-yl)-[1,2,4]triazine]
6.00 to 7.00 | – | – | Cc1n[nH]c2ccc(-c3nnc(N)c(N4CCN[C@H](c5ccccc5)C4)n3)cc12 [Compound 6, 6-amino-3-(3-methylindazol-5-yl)-5-[(R)-3-phenylpiperazin-1-yl]-[1,2,4]triazine]
> 7.00 | > 90 | 8.59 | Cc1n[nH]c2ccc(-c3nncc(N4CCN[C@@H](Cc5ccccc5)C4)n3)cc12 [Compound 12, 3-(3-methylindazol-5-yl)-5-[(S)-3-benzylpiperazin-1-yl]-[1,2,4]triazine]
> 7.00 | > 90 | – | Cc1n[nH]c2ccc(-c3nnc(Cl)c(N4CCN[C@@H](Cc5ccccc5)C4)n3)cc12 [Compound 13, 5-[(S)-3-benzylpiperazin-1-yl]-6-chloro-3-(3-methylindazol-5-yl)-[1,2,4]triazine]
6.00 to 7.00 | – | – | Cc1n[nH]c2ccc(-c3nnc(NCc4ccccc4)c(N4CCN[C@@H](C)C4)n3)cc12 [Compound 15, 6-benzylamino-3-(3-methylindazol-5-yl)-5-[(S)-3-methylpiperazin-1-yl]-[1,2,4]triazine]
< 6.00 | – | – | Cc1n[nH]c2ccc(-c3nnc(NCc4ccccc4)c(N4CCN[C@@H](CC(C)C)C4)n3)cc12 [Compound 17, 6-benzylamino-5-[(S)-3-isobutylpiperazin-1-yl]-3-(3-methylindazol-5-yl)-[1,2,4]triazine]
< 6.00 | – | – | Cc1n[nH]c2ccc(-c3nnc(Cl)c(N4CCN[C@@H](Cc5c[nH]c6ccccc56)C4)n3)cc12 [Compound 22, 6-chloro-5-[(S)-3-(3-indolylmethyl)piperazin-1-yl]-3-(3-methylindazol-5-yl)-[1,2,4]triazine]
< 6.00 | – | – | Cc1n[nH]c2ccc(-c3nnc(Cl)c(N4CCN[C@@H](COCc5ccccc5)C4)n3)cc12 [Compound 25, 5-[(R)-3-(benzyloxymethyl)piperazin-1-yl]-6-chloro-3-(3-methylindazol-5-yl)-[1,2,4]triazine]
< 6.00 | – | – | Cc1n[nH]c2ccc(-c3nncc(N4CCN[C@@H](COCc5ccccc5)C4)n3)cc12 [Compound 26, 5-[(R)-3-(benzyloxymethyl)piperazin-1-yl]-3-(3-methylindazol-5-yl)-[1,2,4]triazine]
